Experimental data as given in US9458124B2, “Substituted pyran derivatives” (Wayne State University, priority 2013, dated 2016).
Counter-ions that a name gives are not always drawn.

Legend:
[1] = target: T1, DAT (Rattus norvegicus, UniProt P23977); test: DAT uptake inhibition, [3H]DA, rat brain; type: biochemical; settings: number in parentheses within cell
T1 construct: from tissue; host or cells: rat brain

[2] = target: T2, SERT (Rattus norvegicus, UniProt P31652); test: SERT uptake inhibition, [3H]-5-HT, rat brain; type: biochemical; settings: number in parentheses within cell
T2 construct: from tissue; host or cells: rat brain
T2 sequence (P31652 whole entry): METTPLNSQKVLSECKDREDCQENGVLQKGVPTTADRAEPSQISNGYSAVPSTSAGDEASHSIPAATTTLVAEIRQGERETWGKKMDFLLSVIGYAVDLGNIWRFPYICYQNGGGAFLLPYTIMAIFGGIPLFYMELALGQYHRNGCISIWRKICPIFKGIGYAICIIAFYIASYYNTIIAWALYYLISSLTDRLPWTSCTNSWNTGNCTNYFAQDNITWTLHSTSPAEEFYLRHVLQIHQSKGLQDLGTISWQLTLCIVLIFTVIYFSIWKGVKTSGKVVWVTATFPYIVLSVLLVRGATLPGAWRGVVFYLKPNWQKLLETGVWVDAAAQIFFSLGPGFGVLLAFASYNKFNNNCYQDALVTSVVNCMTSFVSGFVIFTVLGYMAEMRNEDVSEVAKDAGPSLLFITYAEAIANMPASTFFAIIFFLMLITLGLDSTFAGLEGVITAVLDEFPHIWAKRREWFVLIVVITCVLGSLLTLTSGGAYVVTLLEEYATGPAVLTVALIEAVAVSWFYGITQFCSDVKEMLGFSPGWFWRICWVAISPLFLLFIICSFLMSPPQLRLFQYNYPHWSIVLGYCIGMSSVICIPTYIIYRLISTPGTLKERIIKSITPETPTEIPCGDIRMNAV

[3] = target: T3, NET (Rattus norvegicus, UniProt Q63380); test: NET uptake inhibition, [3H]DA, rat brain; type: biochemical; settings: number in parentheses within cell
T3 construct: from tissue; host or cells: rat brain
T3 sequence (Q63380 1-617): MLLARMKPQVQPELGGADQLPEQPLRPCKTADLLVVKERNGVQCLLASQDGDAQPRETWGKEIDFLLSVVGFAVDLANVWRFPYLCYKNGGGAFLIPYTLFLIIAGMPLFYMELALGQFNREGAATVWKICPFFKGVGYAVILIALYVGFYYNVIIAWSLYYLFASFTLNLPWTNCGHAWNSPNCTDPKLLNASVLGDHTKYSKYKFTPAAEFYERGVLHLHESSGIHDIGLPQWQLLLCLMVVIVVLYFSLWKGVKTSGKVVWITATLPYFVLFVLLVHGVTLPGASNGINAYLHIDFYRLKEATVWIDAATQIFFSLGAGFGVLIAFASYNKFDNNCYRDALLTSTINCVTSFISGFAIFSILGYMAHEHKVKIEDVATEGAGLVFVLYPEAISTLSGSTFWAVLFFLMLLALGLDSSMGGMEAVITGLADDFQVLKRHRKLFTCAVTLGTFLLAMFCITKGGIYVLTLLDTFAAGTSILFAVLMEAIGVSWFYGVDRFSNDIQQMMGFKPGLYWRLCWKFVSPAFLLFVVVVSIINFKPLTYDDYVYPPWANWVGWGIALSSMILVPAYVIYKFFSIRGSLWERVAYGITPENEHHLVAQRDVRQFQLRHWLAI

T1 sequence (P23977 whole entry): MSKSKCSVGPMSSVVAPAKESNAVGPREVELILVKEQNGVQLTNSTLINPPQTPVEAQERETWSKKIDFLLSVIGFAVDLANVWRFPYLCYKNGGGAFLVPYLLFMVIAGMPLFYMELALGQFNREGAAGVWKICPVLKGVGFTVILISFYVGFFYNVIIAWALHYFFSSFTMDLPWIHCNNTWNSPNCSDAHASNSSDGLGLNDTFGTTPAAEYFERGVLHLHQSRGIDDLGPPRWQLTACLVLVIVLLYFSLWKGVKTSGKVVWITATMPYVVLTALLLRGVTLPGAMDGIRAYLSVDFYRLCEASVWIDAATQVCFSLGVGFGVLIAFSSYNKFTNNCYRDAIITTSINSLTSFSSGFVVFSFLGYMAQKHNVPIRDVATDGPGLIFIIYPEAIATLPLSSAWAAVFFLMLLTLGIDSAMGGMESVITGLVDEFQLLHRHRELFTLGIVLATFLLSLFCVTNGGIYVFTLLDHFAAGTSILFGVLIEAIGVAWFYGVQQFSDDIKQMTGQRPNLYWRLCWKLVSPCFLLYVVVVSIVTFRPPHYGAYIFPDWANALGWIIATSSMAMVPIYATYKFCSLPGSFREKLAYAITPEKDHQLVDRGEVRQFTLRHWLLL

Structure (SMILES)	Ki [1] [nM]	Ki [2] [nM]	Ki [3] [nM]	melting point [°C]
O[C@@H]1C[C@@H](C(c2ccc(F)cc2)c2ccc(F)cc2)OC[C@H]1NCc1ccc2c(c1)OCO2 [6b, D-506, (2S,4R,5R)-5-((benzo[d][1,3]dioxol-5-ylmethyl)amino)-2-(bis(4-fluorophenyl)methyl)tetrahydro-2H-pyran-4-ol]	37 ± 7.5			
COc1cc(O)cc(CN[C@@H]2CO[C@H](C(c3ccccc3)c3ccccc3)C[C@H]2O)c1 [4e, D-503, (2S,4R,5R)-2-benzhydryl-5-((3-hydroxy-5-methoxybenzyl)amino)tetrahydro-2H-pyran-4-ol]	209 ± 25	385 ± 42		
c1ccc(C(c2ccccc2)[C@@H]2CC[C@H](NCc3ccc4cc[nH]c4c3)CO2)cc1 [2b, D-543]	56.3 ± 1.1	13.6 ± 1.6	20.8 ± 4.6	
O[C@@H]1C[C@@H](C(c2ccccc2)c2ccccc2)OC[C@H]1NCc1ccc2cc[nH]c2c1 (as salt: oxalate) [4b, D-544, (2S,4R,5R)-5-(((1H-indol-6-yl)methyl)amino)-2-benzhydryltetrahydro-2H-pyran-4-ol]				152 to 154
COc1cccc(CN[C@@H]2CO[C@H](C(c3ccccc3)c3ccccc3)C[C@H]2O)c1 (as salt: hydrochloride) [4g, D-523, (2S,4R,5R)-2-benzhydryl-5-((3-methoxybenzyl)amino)tetrahydro-2H-pyran-4-ol]				197 to 199
COc1ccc(CN[C@@H]2CO[C@H](C(c3ccc(F)cc3)c3ccc(F)cc3)C[C@H]2O)cc1 [6a, D-473, (2S,4R,5R)-2-(bis(4-fluorophenyl)methyl)-5-((4-methoxybenzyl)amino)tetrahydro-2H-pyran-4-ol]	13.3 ± 2	46.7 ± 17	13.2 ± 3.5	
c1ccc(C(c2ccccc2)[C@@H]2CC[C@H](NCc3ccc4cc[nH]c4c3)CO2)cc1 (as salt: oxalate) [2b, D-543]				194 to 196
COc1cc(O)cc(CN[C@@H]2CO[C@H](C(c3ccccc3)c3ccccc3)C[C@H]2O)c1 (as salt: hydrochloride) [4e, D-503, (2S,4R,5R)-2-benzhydryl-5-((3-hydroxy-5-methoxybenzyl)amino)tetrahydro-2H-pyran-4-ol]				160 to 162
COc1cc(O)cc(CN[C@@H]2CO[C@H](C(c3ccc(F)cc3)c3ccc(F)cc3)C[C@H]2O)c1 [6g, D-526, (2S,4R,5R)-2-(bis(4-fluorophenyl)methyl)-5-((3-hydroxy-5-methoxybenzyl)amino)tetrahydro-2H-pyran-4-ol]	25.6 ± 5.8	577 ± 94		
COc1ccc(CN[C@@H]2CO[C@H](C(c3ccc(F)cc3)c3ccc(F)cc3)C[C@H]2O)cn1 [6p, D-537, (2S,4R,5R)-2-(bis(4-fluorophenyl)methyl)-5-(((6-methoxypyridin-3-yl)methyl)amino)tetrahydro-2H-pyran-4-ol]	20.1 ± 5.3	258 ± 26	28.4 ± 4	
Nc1ccc(CN[C@@H]2CO[C@H](C(c3ccc(F)cc3)c3ccc(F)cc3)C[C@H]2O)cc1 [6k, D-529, (2S,4R,5R)-5-((4-aminobenzyl)amino)-2-(bis(4-fluorophenyl)methyl) tetrahydro-2H-pyran-4-ol]	24.5 ± 1.2	339 ± 39		
CCNc1ccc(CN[C@@H]2CO[C@H](C(c3ccc(F)cc3)c3ccc(F)cc3)C[C@H]2O)cc1 [6m, D-530, (2S,4R,5R)-2-(bis(4-fluorophenyl)methyl)-5-((4-(ethylamino)benzyl)amino) tetrahydro-2H-pyran-4-ol]		320 ± 40		
COc1cccc(CN[C@@H]2CO[C@H](C(c3ccc(F)cc3)c3ccc(F)cc3)C[C@H]2O)c1 [6e, D-524, (2S,4R,5R)-2-(bis(4-fluorophenyl)methyl)-5-((3-methoxybenzyl)amino)tetrahydro-2H-pyran-4-ol]	56.8 ± 7.6	129 ± 25		
O[C@@H]1C[C@@H](C(c2ccc(F)cc2)c2ccc(F)cc2)OC[C@H]1NCc1ccc2c(c1)CCO2 [6c, D-507, (2S,4R,5R)-2-(bis(4-fluorophenyl)methyl)-5-(((2,3-dihydrobenzofuran-5-yl)methyl)amino)tetrahydro-2H-pyran-4-ol]	17	54 ± 7.8	25.8 ± 5	
O[C@@H]1C[C@@H](C(c2ccccc2)c2ccccc2)OC[C@H]1NCc1ccc2occc2c1 [4a, D-485, (2S,4R,5R)-2-benzhydryl-5-((benzofuran-5-ylmethyl)amino)tetrahydro-2H-pyran-4-ol]	234 ± 11	2.68 ± 0.094	33.6 ± 18.7	
O[C@@H]1C[C@@H](C(c2ccc(F)cc2)c2ccc(F)cc2)OC[C@H]1NCc1ccc2occc2c1 [6d, D-508, (2S,4R,5R)-5-((benzofuran-5-ylmethyl)amino)-2-(bis(4-fluorophenyl)methyl)tetrahydro-2H-pyran-4-ol]	29.3 ± 2.4	68.4 ± 11.4	26.5 ± 6.6	

Structure (SMILES)	Ki [1] [nM]	Ki [2] [nM]	Ki [3] [nM]	melting point [°C]
c1ccc(C(c2ccccc2)[C@@H]2CC[C@H](NCc3ccc4occc4c3)CO2)cc1 (as salt: hydrochloride) [2a, D-484, (3S,6S)-6-benzhydryl-N-(benzofuran-5-ylmethyl)tetrahydro-2H-pyran-3-amine]				140 to 142
COc1cc(CN[C@@H]2CO[C@H](C(c3ccc(F)cc3)c3ccc(F)cc3)C[C@H]2O)ccc1O [6h, D-527, (2S,4R,5R)-2-(bis(4-fluorophenyl)methyl)-5-((4-hydroxy-3-methoxybenzyl)amino)tetrahydro-2H-pyran-4-ol]	8.94 ± 2.2	107 ± 11		
COc1ccc(CN[C@@H]2CO[C@H](C(c3ccccc3)c3ccccc3)C[C@H]2O)cc1O (as salt: hydrochloride) [4d, D-502, (2S,4R,5R)-2-benzhydryl-5-((3-hydroxy-4-methoxybenzyl)amino)tetrahydro-2H-pyran-4-ol]				168 to 170
COc1cccc(CN[C@@H]2CO[C@H](C(c3ccccc3)c3ccccc3)C[C@H]2O)c1 [4g, D-523, (2S,4R,5R)-2-benzhydryl-5-((3-methoxybenzyl)amino)tetrahydro-2H-pyran-4-ol]	376 ± 68	27.2 ± 3	5.85 ± 1.27	
COc1cc(CN[C@@H]2CO[C@H](C(c3ccccc3)c3ccccc3)C[C@H]2O)ccc1O (as salt: hydrochloride) [4c, D-501, (2S,4R,5R)-2-benzhydryl-5-((4-hydroxy-3-methoxybenzyl)amino)tetrahydro-2H-pyran-4-ol]				203 to 205
COc1cc(CN[C@@H]2CO[C@H](C(c3ccccc3)c3ccccc3)C[C@H]2O)ccc1O [4c, D-501, (2S,4R,5R)-2-benzhydryl-5-((4-hydroxy-3-methoxybenzyl)amino)tetrahydro-2H-pyran-4-ol]	167 ± 36			
CN(C)c1ccc(CN[C@@H]2CO[C@H](C(c3ccc(F)cc3)c3ccc(F)cc3)C[C@H]2O)cc1 [6o, D-536, (2S,4R,5R)-2-(bis(4-fluorophenyl)methyl)-5-((4-(dimethylamino)benzyl)amino)tetrahydro-2H-pyran-4-ol]	41.3 ± 9.7	144 ± 26	56.6 ± 5.2	
Oc1cc(O)cc(CN[C@@H]2CO[C@H](C(c3ccccc3)c3ccccc3)C[C@H]2O)c1 (as salt: hydrochloride) [4f, D-542, 5-((((3R,4R,6S)-6-benzhydryl-4-hydroxytetrahydro-2H-pyran-3-yl)amino)methyl)benzene-1,3-diol]				168 to 170
COc1ccc(CN[C@@H]2CO[C@H](C(c3ccc(F)cc3)c3ccc(F)cc3)C[C@H]2O)cc1O [6i, D-528, (2S,4R,5R)-2-(bis(4-fluorophenyl)methyl)-5-((3-hydroxy-4-methoxybenzyl)amino)tetrahydro-2H-pyran-4-ol]	7.94 ± 0.66	367 ± 52		
Oc1ccc(CN[C@@H]2CO[C@H](C(c3ccc(F)cc3)c3ccc(F)cc3)C[C@H]2O)cc1F [6n, D-531, (2S,4R,5R)-2-(bis(4-fluorophenyl)methyl)-5-((3-fluoro-4-hydroxybenzyl)amino) tetrahydro-2H-pyran-4-ol]		334 ± 54		
COc1ccc(CN[C@@H]2CO[C@H](C(c3ccccc3)c3ccccc3)C[C@H]2O)cc1O [4d, D-502, (2S,4R,5R)-2-benzhydryl-5-((3-hydroxy-4-methoxybenzyl)amino)tetrahydro-2H-pyran-4-ol]	58.6 ± 11.8	281 ± 37		
Oc1cc(O)cc(CN[C@@H]2CO[C@H](C(c3ccccc3)c3ccccc3)C[C@H]2O)c1 [4f, D-542, 5-((((3R,4R,6S)-6-benzhydryl-4-hydroxytetrahydro-2H-pyran-3-yl)amino)methyl)benzene-1,3-diol]	259 ± 44	3020	152 ± 29	
O[C@@H]1C[C@@H](C(c2ccccc2)c2ccccc2)OC[C@H]1NCc1ccc2cc[nH]c2c1 [4b, D-544, (2S,4R,5R)-5-(((1H-indol-6-yl)methyl)amino)-2-benzhydryltetrahydro-2H-pyran-4-ol]	64 ± 6.1	9.6 ± 2.57	10 ± 3.5	
O[C@@H]1C[C@@H](C(c2ccccc2)c2ccccc2)OC[C@H]1NCc1ccc2occc2c1 (as salt: hydrochloride) [4a, D-485, (2S,4R,5R)-2-benzhydryl-5-((benzofuran-5-ylmethyl)amino)tetrahydro-2H-pyran-4-ol]				204 to 206
c1ccc(C(c2ccccc2)[C@@H]2CC[C@H](NCc3ccc4occc4c3)CO2)cc1 [2a, D-484, (3S,6S)-6-benzhydryl-N-(benzofuran-5-ylmethyl)tetrahydro-2H-pyran-3-amine]	81.9 ± 17.9	0.71 ± 0.085	25.2 ± 5.3	
